Results published in patent US7452870B2, “Drug-eluting stents coated with P2Y12 receptor antagonist compound” (Inspire Pharmaceuticals, Inc., priority 2000, dated 2008).

How the values were obtained:
Assay type in all cases: cell-based
P2Y6 = P2Y6 (Homo sapiens, UniProt Q15077); assay: Calcium mobilization assay, P2Y6; parameters: key: no response (NR); details: activation of P2Y6 receptor;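 note: test compound added first then a maximal dose of the cognate agonist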
P2Y2 = P2Y2 (Homo sapiens, UniProt P41231); assay: Calcium mobilization assay, P2Y2; parameters: key: no response (NR); details: activation of P2Y2 receptor;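 note: test compound added first then a maximal dose of the cognate agonist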
P2Y1 = P2Y1 (Homo sapiens, UniProt P47900); assay: Calcium mobilization assay, P2Y1; parameters: key: no response (NR); details: activation of P2Y1 receptor;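 note: test compound added first then a maximal dose of the cognate agonist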
[1] = tested on: washed platelet (ADP-induced aggregation; P2Y12 receptor); assay: ADP-induced platelet aggregation, washed platelet preparation; details: Homo sapiens, inhibition of ADP-induced aggregation, washed platelets, average of at least two separate experiments
Method: Blood was collected from healthy volunteers into syringes containing ⅙ final blood volume of anti-coagulant ACD (65 mM citric acid, 85 mM sodium citrate, 110 mM dextrose) for washed platelet (WP) preparation or into a syringe containing a final concentration of 10 units/mL heparin or 300 μM PPACK for whole blood (WB) assays. The blood collected for whole blood assays was maintained at room temperature and immediately tested as described below. […] These centrifugations and washes were repeated twice following by resuspension in the media described above containing 0.25 U apyrase/mL. Platelet aggregation was measured using the optical mode of a CHRONOLOG® aggregometer (Havertown, Pa.). Five hundred μl of platelet suspension containing 1 mg/mL Fibrinogen were warmed to 37° C. and stirred at 1000 rpm. Indicated concentrations of ADP were added to the sample and aggregation was monitored for 8 minutes. […] For whole blood aggregation, blood was diluted 1:1 with saline and then aggregation was performed in the same manner as described above using the impedance mode of the aggregometer. The potency of agonists and inhibitors of platelet aggregation was calculated from both, the rate of aggregation and the maximal extent of aggregation obtained for each determination by fitting the data to a four-parameter logistic equation using the […]® software package (GraphPad Corp. San Diego, Calif.).
The ability of P2Y12 antagonists to inhibit platelet aggregation is presented in this application as the percent inhibition of the aggregation induced by a maximally effective concentration of ADP.
Data presented are from the average of at least two separate experiments.

P2Y4 = P2Y4 (Homo sapiens, UniProt P51582); assay: Calcium mobilization assay, P2Y4; parameters: key: no response (NR); details: activation of P2Y4 receptor;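 note: test compound added first then a maximal dose of the cognate agonist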
P2Y4, sequence (P51582 whole entry, species assumed): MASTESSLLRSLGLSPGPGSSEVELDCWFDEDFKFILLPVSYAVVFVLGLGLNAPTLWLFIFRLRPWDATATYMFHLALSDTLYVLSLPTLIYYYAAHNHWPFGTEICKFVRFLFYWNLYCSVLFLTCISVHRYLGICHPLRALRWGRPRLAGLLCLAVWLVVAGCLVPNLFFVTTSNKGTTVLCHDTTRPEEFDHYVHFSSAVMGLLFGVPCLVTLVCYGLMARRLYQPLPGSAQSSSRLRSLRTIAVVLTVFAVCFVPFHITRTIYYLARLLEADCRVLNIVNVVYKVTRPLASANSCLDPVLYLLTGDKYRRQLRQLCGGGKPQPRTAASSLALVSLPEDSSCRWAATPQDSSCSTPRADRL

P2Y2, sequence (P41231 whole entry, species assumed): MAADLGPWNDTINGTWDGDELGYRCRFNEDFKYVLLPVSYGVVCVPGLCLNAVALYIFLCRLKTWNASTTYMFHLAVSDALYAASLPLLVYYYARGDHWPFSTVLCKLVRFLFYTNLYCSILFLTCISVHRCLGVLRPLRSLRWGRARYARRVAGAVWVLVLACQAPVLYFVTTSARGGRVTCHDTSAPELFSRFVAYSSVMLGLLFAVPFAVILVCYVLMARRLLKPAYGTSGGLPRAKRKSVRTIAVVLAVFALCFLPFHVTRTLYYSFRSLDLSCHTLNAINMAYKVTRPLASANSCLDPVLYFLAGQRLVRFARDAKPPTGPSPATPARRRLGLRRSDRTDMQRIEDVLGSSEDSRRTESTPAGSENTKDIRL
P2Y1, sequence (P47900 whole entry): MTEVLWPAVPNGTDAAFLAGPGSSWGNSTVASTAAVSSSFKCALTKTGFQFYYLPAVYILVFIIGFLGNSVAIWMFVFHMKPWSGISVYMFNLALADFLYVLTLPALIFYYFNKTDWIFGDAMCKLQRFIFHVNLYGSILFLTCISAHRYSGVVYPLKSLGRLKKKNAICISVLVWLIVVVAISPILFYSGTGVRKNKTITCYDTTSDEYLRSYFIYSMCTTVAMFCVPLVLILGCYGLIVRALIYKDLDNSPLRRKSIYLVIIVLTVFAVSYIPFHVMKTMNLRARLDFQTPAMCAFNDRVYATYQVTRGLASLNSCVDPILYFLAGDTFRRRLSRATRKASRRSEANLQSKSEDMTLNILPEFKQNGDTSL
P2Y6, sequence (Q15077 whole entry, species assumed): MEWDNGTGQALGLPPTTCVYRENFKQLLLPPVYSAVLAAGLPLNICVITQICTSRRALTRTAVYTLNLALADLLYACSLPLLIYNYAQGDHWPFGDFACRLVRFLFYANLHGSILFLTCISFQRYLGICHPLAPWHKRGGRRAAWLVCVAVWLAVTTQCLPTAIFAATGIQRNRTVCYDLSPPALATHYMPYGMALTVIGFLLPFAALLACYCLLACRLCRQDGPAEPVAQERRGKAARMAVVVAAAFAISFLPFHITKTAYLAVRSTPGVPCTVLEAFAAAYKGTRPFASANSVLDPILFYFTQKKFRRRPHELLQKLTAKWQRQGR

| Calcium Mobilization P2Y6 (P2Y6) | Calcium Mobilization P2Y2 (P2Y2) | Calcium Mobilization P2Y1 (P2Y1) | IC50 [1] [nM] | Calcium Mobilization P2Y4 (P2Y4) | SMILES |
| --- | --- | --- | --- | --- | --- |
| NR | NR | NR | 210 | NR | CCCCCCNC(=O)Nc1ncnc2c1ncn2[C@@H]1O[C@H](COP(=O)(O)O)C2OC(C#Cc3ccccc3)O[C@@H]21 (stereo partly shown) [Compound 32, 2′,3′-phenylpropargyl acetal-6-N-n-hexylurea AMP] |
| NR | NR | NR | 12 | NR | CCNC(=O)Nc1ncnc2c1ncn2[C@@H]1O[C@H](COP(=O)(O)O)C2O[C@H](c3ccccc3)O[C@@H]21 (stereo partly drawn) [Compound 42, 2′3′-(trans)phenyl acetal-6-N-ethylurea AMP] |
| NR | NR | NR | 10 | NR | CCNC(=O)Nc1ncnc2c1ncn2[C@@H]1O[C@H](COP(=O)(O)OP(=O)(O)OC[C@H]2O[C@@H](n3cnc4c(NC(=O)NCC)ncnc43)[C@H]3OC(C#Cc4ccccc4)OC23)C2OC(C#Cc3ccccc3)OC21 (stereo partly shown) [Compound 45, P^1, p2′-di-(2′,3′-phenylpropargylacetal-6-N-ethylureaadenosine 5′-) diphosphate] |
| NR | NR | NR | 41 ± 7 | NR | CCNC(=O)Nc1ncnc2c1ncn2[C@@H]1O[C@H](COP(=O)(O)O)C2OC(Cc3ccccc3)O[C@@H]21 (stereo partly shown) [Compound 24, 2′,3′-phenylacetaldehyde acetal-6-N-ethylurea AMP] |
| NR | NR | NR | 11 | NR | CCNC(=O)Nc1ncnc2c1ncn2[C@@H]1O[C@H](COP(=O)(O)O)C2O[C@@H](c3ccccc3)O[C@@H]21 (stereo partly drawn) [Compound 43, 2′3′-(cis)phenyl acetal-6-N-ethylurea AMP] |
| NR | NR | NR | 36 ± 9 | NR | O=C(Nc1ncnc2c1ncn2[C@@H]1O[C@H](COP(=O)(O)O)C2OC(Cc3ccccc3)O[C@@H]21)NC1CCCC1 (stereo partly shown) [Compound 25, 2′,3′-phenylacetaldehyde acetal-6-N-cyclopentylurea AMP] |
| NR | NR | NR | 230 | NR | O=C(Nc1ccccc1)Nc1ncnc2c1ncn2[C@@H]1O[C@H](COP(=O)(O)O)C2OC(C#Cc3ccccc3)O[C@@H]21 (stereo partly shown) [Compound 31, 2′,3′-phenylpropargyl acetal-6-N-phenylurea AMP] |
| NR | NR | NR | 36 ± 9 | NR | CCCCCCNC(=O)Nc1ncnc2c1ncn2[C@@H]1O[C@H](COP(=O)(O)O)C2OC(/C=C/c3ccccc3)O[C@@H]21 (stereo partly shown) [Compound 26, 2′,3′-cinnamyl acetal-6-N-n-hexylurea AMP] |
| NR | NR | NR | 9 ± 3 | NR | CCNC(=O)Nc1ncnc2c1ncn2[C@@H]1O[C@H](COP(=O)(O)O)C2OC(/C=C/c3ccccc3)O[C@@H]21 (stereo partly shown) [Compound 27, 2′,3′-cinnamyl acetal-6-N-ethylurea adenosine 5′-monophosphate] |

The remaining lines, values behind:

| SMILES | Calcium Mobilization P2Y6 (P2Y6) | Calcium Mobilization P2Y2 (P2Y2) | Calcium Mobilization P2Y1 (P2Y1) | IC50 [1] [nM] | Calcium Mobilization P2Y4 (P2Y4) |
| --- | --- | --- | --- | --- | --- |
| CCCCCCNC(=O)Nc1ncnc2c1ncn2[C@@H]1O[C@H](COP(=O)(O)O)C2OC(Cc3ccccc3)O[C@@H]21 (stereo partly shown) [Compound 23, 2′,3′-phenylacetaldehyde acetal-6-N-n-hexylurea AMP] | NR | NR | NR | 53 ± 16 | NR |
| O=C(Nc1ccccc1)Nc1ncnc2c1ncn2[C@@H]1O[C@H](COP(=O)(O)O)C2OC(Cc3ccccc3)O[C@@H]21 (stereo partly shown) [Compound 22, 2′,3′-phenylacetaldehyde acetal-6-N-phenylurea adenosine 5′-monophosphate] | NR | NR | NR | 160 ± 27 | NR |
| CCNC(=O)Nc1ncnc2c1ncn2[C@@H]1O[C@H](COP(=O)(O)O)C2OC(C#Cc3ccccc3)O[C@@H]21 (stereo partly shown) [Compound 35, 2′,3′-phenylpropargyl acetal-6-N-ethylurea AMP] | NR | NR | NR | 25 | NR |
| O=C(Nc1ccccc1)Nc1ncnc2c1ncn2[C@@H]1O[C@H](COP(=O)(O)O)C2OC(/C=C/c3ccccc3)O[C@@H]21 (stereo partly shown) [Compound 28, 2′,3′-cinnamyl acetal-6-N-phenylurea AMP] | NR | NR | NR | 209 | NR |
| CCCCNC(=O)Nc1ncnc2c1ncn2[C@@H]1O[C@H](COP(=O)(O)O)C2OC(C#Cc3ccccc3)O[C@@H]21 (stereo partly shown) [Compound 33, 2′,3′-phenylpropargyl acetal-6-N-n-butylurea AMP] | NR | NR | NR | 67 | NR |
| CCNC(=O)Nc1ncnc2c1ncn2[C@@H]1O[C@H](COP(=O)(O)OP(=O)(O)OC[C@H]2O[C@@H](n3cnc4c(NC(=O)NCC)ncnc43)[C@H]3OC(c4ccccc4)OC23)C2OC(c3ccccc3)OC21 (stereo partly shown) [Compound 47, P^1, P^4-Di-(2′,3′-phenylacetal-6-N-ethylureaadenosine 5′-) diphosphate] | NR | NR | NR | 55 | NR |
| CCNC(=O)Nc1ncnc2c1ncn2[C@@H]1O[C@H](COP(=O)(O)O)C2OC(c3ccccc3)O[C@@H]21 (stereo partly shown) [Compound 36, 2′,3′-benzaldehyde acetal-6-N-ethylurea AMP] | NR | NR | NR | 13 ± 3 | NR |
| CCNC(=O)Nc1ncnc2c1ncn2[C@@H]1O[C@H](COP(=O)(O)OP(=O)(O)OC[C@H]2O[C@@H](n3cnc4c(NC(=O)NCC)ncnc43)[C@H]3OC(Cc4ccccc4)OC23)C2OC(Cc3ccccc3)OC21 (stereo partly shown) [Compound 46, P^1, P^1-di-(2′,3′-phenylacetaldehydeacetal-6-N-ethylureaadenosine 5′-) diphosphate] | NR | NR | NR | 53 | NR |
